# Source: patent US11484529B2, “Desmethylanethole trithione derivatives for the treatment of diseases linked to mitochondrial reactive oxygen species (ROS) production” (OP2 Drugs, priority 2017, dated 2022)
# Columns and labels:
# Sod2-KO mice = Sod2-KO mice (lifespan, heart SDH activity, liver Oil Red O staining); format: in vivo, mouse
# Excerpt: Mice deficient in mitochondrial Mn-Superoxide Dismutase (Sod2-KO) on a CD1-background were used. This genetic alteration leads to an adverse phenotype and the death of animals at an average of 8 days old. Mitochondrial superoxide dismutase is a free radical scavenging enzyme which transforms superoxide (highly reactive) into hydrogen peroxide (less reactive), that could then cross mitochondrial membranes and be detoxified by matrix and cytosolic anti-oxidant systems. The aim of this study was to test if AOL could rescue the Sod2-KO phenotype through its activity on IQ superoxide production.
# After birth, pups were genotyped (3 day-old) and the litter size was reduced to 6 pups per cage. Animals were then treated (AOL in Kolliphor®—5 mg/kg) or not (Kolliphor® only, noted KOL below). […] Two studies were conducted on two different generations from the same parents: lifespan; and succinate dehydrogenase activity in heart (SDH) and Oil Red O staining in liver. Animals were weighed and injected (intra-peritoneal) daily.
# Succinate dehydrogenase activity is a marker of superoxide in the mitochondrial matrix. Thus, a lack of SOD2 is associated with a decrease of SDH activity in heart. The aim of this experiment was to test whether or not AOL could restore SDH activity in KO mice.
# However, the direct link between superoxide/hydrogen peroxide production and liver lipid accumulation is not established. The aim of the study was to test the potency of AOL to prevent liver lipid accumulation in Sod2-KO mice.
# Animals were injected once a day from 3 days old until their death.
# In this study, animals were treated daily (5 mg/kg) from day 3 to day 5. Heart and liver were harvested at day 6.
# [1] = tested on: chronic hypoxic rats and monocrotaline-treated rats; test: Pulmonary hypertension rat models (chronic hypoxia, monocrotaline); format: in vivo
# Protocol: Male Wistar rats (300-400 g) were separated into 3 groups and used 4 weeks later: • the first group (control or normoxic rats—N rats) was housed in ambient room air; • the second group (chronic hypoxic rats—CH rats) was exposed to chronic hypoxia for 3 weeks in a hypobaric chamber (50 kPa); and • the third group (MCT rats) was injected with a single intraperitoneal dose of monocrotaline at a dose of 60 mg/kg. MCT (Sigma, St Quentin Fallavier, France) was dissolved in an equal volume of HCl (1 M) and NaOH (1 M).
# In each group, some animals were treated with AOL (Sulfarlem, EG Labo Eurogenerics. Crushed tablets mixed with food, fed ad libitum) and some other animals were untreated. Eaten food was weighed every day to estimate the AOL dose administered. 10 mg/kg/day was thus administered during the 3 weeks of experiment for the second and third groups.
# Pulmonary hypertension was assessed by measuring both the mean pulmonary arterial pressure (mPAP) and right ventricle hypertrophy. To measure PAP, N, CH and MCT rats were anesthetized with pentobarbital sodium (Centravet) by intraperitoneal injection (60 mg/kg) and mPAP was measured, in closed-chest rats, through a catheter inserted in the right jugular vein, then through the right atria and the right ventricle into the pulmonary artery, and attached to a Baxter Uniflow gauge pressure transducer. Right ventricle hypertrophy was estimated by the ratio of right ventricle (RV) to left ventricle plus septum (LV+S) weight (Fulton index).
# Pulmonary arteries (PA) remodeling was assessed by measuring the percentage of the PA medial thickness from sections of paraffin-embedded lung. Lung sections were first stained with hematoxylin and eosin (VWR) according to common histological procedure.
# [2] = tested on: retina (outer nuclear layer); test: Progressive light-induced retinal degeneration; format: in vivo, rat; settings: 6 mg/kg/day, three times a day, 7 days
# Protocol: Rats bred under cyclic low-intensity lighting were transferred to cyclic high-intensity lighting for one week and divided into 3 groups (non-treated animals, vehicle-treated animals and AOL-treated animals). Treated animals received injections of vehicle or AOL at a dose of 6 mg/kg/day, three times a day for the 7 days of the transfer (30 minutes before light-ON; at […]). After one week, animals were transferred in the dark (D0).
# A control group (“untransferred”) was not transferred to cyclic high-intensity lighting but received the same treatment as described above: injections of vehicle or AOL three times a day for 7 days, followed by a transfer in the dark (D0).
# Animals were then sacrificed for histological analysis.
# [3] = 5 mg/kg daily, day 3 to day 5, Oil Red O
compound,measurement,setting,value
"COc1ccc(-c2cc(=S)ss2)cc1 [AOL, 5-(4-methoxyphenyl)-3H-1,2-dithiole-3-thione]",SDH activity in heart of KO mice,"Sod2-KO mice; 5 mg/kg daily, day 3 to day 5",only a very slight increase in SDH activity
same,liver lipid droplets density in KO mice,Sod2-KO mice; [3],lipid droplets density decreased
same,liver total lipid area in KO mice,Sod2-KO mice; [3],able to restore the total lipid area
same,lifespan extension compared to untreated KO mice,Sod2-KO mice; 5 mg/kg i.p. daily from 3 days old,up to 2 days
same,body weight and body weight gain of KO mice,"Sod2-KO mice; 5 mg/kg i.p. daily, day 8 to 12",tends to alleviate this effect
same,Fulton index (right ventricular hypertrophy),[1]; 10 mg/kg/day in food,no effect on the Fulton index
same,reduction of pulmonary arteries diameter (PA remodeling),"[1]; CH rats, 10 mg/kg/day",30%
same,mean pulmonary arterial pressure,"[1]; MCT rats, 10 mg/kg/day in food, 3 weeks",decreased in MCT rats
same,mean pulmonary arterial pressure,[1]; normoxic (N) rats,no significant effect on the control group
same,thickness of the outer nuclear layer (ONL),[2]; transferred to cyclic high-intensity lighting,significant increase of the thickness of the ONL
same,thickness of the outer nuclear layer (ONL),[2]; untransferred control group,no effect on ONL's thickness
